1 compound from article PMC6038383, “Crystal structure of the spliceosomal DEAH-box ATPase Prp2” (Acta Crystallographica. Section D, Structural Biology, 2018) can be followed below.

The test has as its target T1, Prp2 from C. thermophilum (ctPrp2), residues 270-921 (Thermochaetoides thermophila, UniProt G0SEG4).
T1 construct: gene CTHT_0063660; N-terminally truncated residues 270-921, GST tag cleaved with PreScission protease, expressed in E. coli Rosetta 2 (DE3)
T1 sequence (G0SEG4 270-921): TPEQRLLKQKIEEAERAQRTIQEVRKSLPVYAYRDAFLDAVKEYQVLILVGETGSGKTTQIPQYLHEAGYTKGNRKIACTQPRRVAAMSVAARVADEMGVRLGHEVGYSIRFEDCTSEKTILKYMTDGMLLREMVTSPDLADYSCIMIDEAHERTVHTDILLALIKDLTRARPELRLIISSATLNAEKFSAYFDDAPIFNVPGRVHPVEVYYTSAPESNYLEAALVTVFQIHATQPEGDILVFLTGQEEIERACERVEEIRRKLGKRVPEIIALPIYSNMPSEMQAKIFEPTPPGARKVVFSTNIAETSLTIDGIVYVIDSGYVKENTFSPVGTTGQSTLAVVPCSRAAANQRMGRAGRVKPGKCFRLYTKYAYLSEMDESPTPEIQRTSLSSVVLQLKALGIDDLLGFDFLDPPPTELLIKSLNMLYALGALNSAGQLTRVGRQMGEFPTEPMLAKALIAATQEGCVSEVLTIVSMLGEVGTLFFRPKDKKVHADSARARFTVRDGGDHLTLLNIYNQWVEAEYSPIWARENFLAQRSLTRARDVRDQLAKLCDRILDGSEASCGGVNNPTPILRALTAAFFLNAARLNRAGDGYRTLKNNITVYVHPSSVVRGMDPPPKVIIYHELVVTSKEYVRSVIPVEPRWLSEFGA
The test is described as follows: isothermal titration calorimetry. It is filed as binding.

Molecules are shown by their SMILES.

The term Kd denotes the equilibrium constant for the complex coming apart. A lower Kd goes with tighter binding. With `Nc1ncnc2c1ncn2[C@@H]1O[C@H](COP(=O)(O)OP(=O)(O)O)[C@@H](O)[C@H]1O` [ADP], the Kd was 179 nM.
